# Results taken from US7612076B2, “Piperazinyl-pyridine derivatives” (Hoffman-La Roche Inc., priority 2004, dated 2009).
# pKi: −log10 of the molar value.
# Target: T1, histamine 3 receptor (H3R) (Homo sapiens, UniProt Q9Y5N1)
# T1 construct: expressed in transfected cells; host or cells: CHO cells (HR3-CHO cell line), membrane preparation
# Test: Binding Assay with 3H-(R)α-Methylhistamine (competition binding, membrane of the human HR3-CHO cell line)
# Conditions: competition binding vs 3H(R)α-Methylhistamine (1 nM = Kd), 1 hour room temperature, Ki calculated from IC50 by Cheng-Prusoff
# Protocol: Binding Assay with ^3H—(R)α-Methylhistamine
# Saturation binding experiments were performed using HR3-CHO membranes prepared as described in Takahashi, K, Tokita, S., Kotani, H. (2003) J. Pharmacol. Exp. Therapeutics 307, 213-218.
# An appropriate amount of membrane (60 to 80 μg protein/well) was incubated with increasing concentrations of ^3H(R)α-Methylhistamine di-hydrochloride (0.10 to 10 nM). Non specific binding was determined using a 200 fold excess of cold (R)α-Methylhistamine dihydrobromide (500 nM final concentration). The incubation was carried out at room temperature (in deep-well plates shaking for three hours). The final volume in each well was 250 μl. The incubation was followed by rapid filtration on GF/B filters (pre-soaked with 100 μl of 0.5% PEI in Tris 50 mM shaking at 200 rpm for two hours). The filtration was made using a cell-harvester and the filter plates were then washed five times with ice cold washing buffer containing 0.5 M NaCl. After harvesting, the plates were dried at 55° C. for 60 min, then we added scintillation fluid (Microscint 40, 40 microl in each well) and the amount of radioactivity on the filter was determined in Packard top-counter after shaking the plates for two hours at 200 rpm at room temperature.
# Binding Buffer: 50 mM Tris-HCl pH 7.4 and 5 mM MgCl2×6H2O pH 7.4. Washing Buffer: 50 mM Tris-HCl pH 7.4 and 5 mM MgCl2×6H2O and 0.5 M NaCl pH 7.4.
# Indirect measurement of affinity of H3R inverse agonists: twelve increasing concentrations (ranging from 10 μM to 0.3 nM) of the selected compounds were always tested in competition binding experiments using membrane of the human HR3-CHO cell line. An appropriate amount of protein, e.g. approximately 500 cpm binding of RAMH at Kd, were incubated for 1 hour at room temperature in 250 μl final volume in 96-well plates in presence of ^3H(R)α-Methylhistamine (1 nM final concentration=Kd). […]
# All compounds were tested at a single concentration in duplicates. […] Ki's were calculated from IC50 based on Cheng-Prusoff equation (Cheng, Y, Prusoff, W H (1973) Biochem Pharmacol 22, 3099-3108).
# T1 sequence (Q9Y5N1 whole entry): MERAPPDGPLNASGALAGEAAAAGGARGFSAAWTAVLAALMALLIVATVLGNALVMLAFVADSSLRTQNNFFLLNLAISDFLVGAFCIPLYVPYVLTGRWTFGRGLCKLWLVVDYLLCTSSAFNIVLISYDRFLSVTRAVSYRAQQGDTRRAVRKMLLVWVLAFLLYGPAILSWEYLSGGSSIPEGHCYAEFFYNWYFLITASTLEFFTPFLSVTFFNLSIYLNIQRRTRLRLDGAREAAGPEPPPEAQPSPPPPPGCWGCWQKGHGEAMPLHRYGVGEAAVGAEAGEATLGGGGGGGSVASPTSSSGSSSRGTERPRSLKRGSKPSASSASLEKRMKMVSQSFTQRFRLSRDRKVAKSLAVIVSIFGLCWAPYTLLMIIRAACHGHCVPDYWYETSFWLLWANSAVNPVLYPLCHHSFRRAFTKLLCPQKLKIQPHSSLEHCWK
row,Structure (SMILES),pKi
1,"O=C(Nc1ccnc(N2CCN(C3CCCC3)CC2)c1)C1CCCCC1 [Example 11, cyclohexanecarboxylic acid [2-(4-cyclopentyl-piperazin-1-yl)-pyridin-4-yl]-amide]",8.07
2,"O=C(Nc1cc(N2CCN(C3CCCC3)CC2)ccn1)c1cccc(F)c1 [Example 48, N-[4-(4-cyclopentyl-piperazin-1-yl)-pyridin-2-yl]-3-fluoro-benzamide]",7.12
3,"O=C(Nc1ccnc(N2CCN(C3CCCC3)CC2)c1)N1CCC(F)CC1 [Example 66, 4-fluoro-piperidine-1-carboxylic acid [2-(4-cyclopentyl-piperazin-1-yl)-pyridin-4-yl]-amide]",7.31
